pIC50: −log10 of the molar value. Read-outs that look alike come from different tables or passages of the source.
Assays:
[1] = biological target: T1, glucosylceramide synthase (Homo sapiens, UniProt Q16739); assay: microsomal assay measuring conversion of ceramide to glucosylceramide by HPLC (GCS IC50); format: biochemical; conditions: concentration causing 50% inhibition of glucosylceramide synthase activity
T1 construct: Microsomes were isolated from A375 human melanoma cells; endogenous in cells; host or cells: A375 human melanoma cells (microsomal fraction, 100,000 g pellet)
T1 sequence (Q16739 1-394): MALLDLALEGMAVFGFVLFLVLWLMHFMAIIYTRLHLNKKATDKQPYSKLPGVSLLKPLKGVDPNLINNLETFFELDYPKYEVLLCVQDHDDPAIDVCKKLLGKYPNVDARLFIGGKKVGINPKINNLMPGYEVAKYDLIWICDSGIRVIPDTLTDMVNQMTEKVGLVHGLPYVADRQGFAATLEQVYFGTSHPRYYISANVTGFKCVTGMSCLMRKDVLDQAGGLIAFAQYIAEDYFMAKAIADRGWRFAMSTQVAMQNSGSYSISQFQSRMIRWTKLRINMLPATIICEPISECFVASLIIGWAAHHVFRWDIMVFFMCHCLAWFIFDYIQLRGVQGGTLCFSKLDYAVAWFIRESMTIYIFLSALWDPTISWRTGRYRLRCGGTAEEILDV
Procedure, shortened: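 Microsomal preparation assayed for glucosylceramide synthase by direct HPLC measurement of ceramide conversion to glucosylceramide. GCS IC50 is the compound concentration giving 50% inhibition of enzyme activity.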

[2] = system: GM3 expression on the cell surface, B16 mouse melanoma cells; assay: cell based phenotypic assay, cell surface GM3 by antibody mediated immunofluorescence, B16 (GM3 B16 IC50); conditions: 50% inhibition of GM3 expression on the cell surface
Procedure, shortened: (§1)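 Two melanoma lines, mouse B16 and human C32, were treated and surface GM3 quantified by antibody immunofluorescence for IC50. A parallel viability readout gives the concentration killing 50% of cells, with values over 10 indicating no cell death.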

[3] = system: GM3 expression on the cell surface, C32 human melanoma cells; assay: cell based phenotypic assay, cell surface GM3 by antibody mediated immunofluorescence, C32 (GM3 C32 IC50); conditions: 50% inhibition of GM3 expression on the cell surface
Procedure, shortened: as §1

B16 mouse melanoma cells = assay: cell viability in the B16 cell-based assay (Viability, B16 IC50)
Procedure, shortened: (§2)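 Both lines undergo the phenotypic GM3 assay, and viability is recorded from that same cell-based run.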

C32 human melanoma cells = assay: cell viability in the C32 cell-based assay (Viability, C32 IC50); conditions: concentration causing 50% cell death, values greater than 10 represent a lack of cell death
Procedure, shortened: as §2

jck mice = assay: glucosylceramide synthase inhibition in a model of polycystic kidney disease (jck mice); format: in vivo, mouse; conditions: FIG. 3
Excerpt: Mice homozygous for the Nek8jck mutation develop polycystic kidney disease (“jck mice”). […] Disease is progressive but not evident by kidney palpation until at least 4 to 5 weeks of age. Homozygotes generally remain active until shortly before death and usually die between 20 and 25 weeks of age. […] No histologic abnormalities are found in the liver, spleen, or pancreas. (Atala et al., 1993).
To evaluate the effects of a GCS inhibitor on polycystic kidney disease, Compound 156, (S)-quinuclidin-3-yl (2-(4′-(2-methoxyethoxy)-[1,1′-biphenyl]-4-yl)propan-2-yl)carbamate was administered in the feed of jck mice at doses of 15, 30 and 50 mg/kg. A second compound, quinuclidin-3-yl (2-(4′-fluoro-[1,1′-biphenyl]-3-yl)propan-2-yl)carbamate (hereinafter “GZ 161”) was administered in the feed of jck mice at a dose of 60 mg/kg.
Administration of the compound was started between 3 and 4 weeks of age, and continued until the mice were sacrificed at 9 weeks of age. The effect of the compounds on the disease phenotype was evaluated by measurement of body weight, blood urea nitrogen (“BUN”), and serum GL1. Additional effects on kidney/body weight (K/BW), cyst volume, BUN, kidney GL1, and serum GL1 were also measured at the end of life time point of the study.

[4] = Mus musculus, read-out: GM3 B16 IC50, B16 mouse melanoma cells
[5] = Homo sapiens, read-out: GM3 C32 IC50, C32 human melanoma cells
[6] = Mus musculus, B16, read-out: Viability, B16 IC50
[7] = Homo sapiens, C32, read-out: Viability, C32 IC50, C32 cells
[8] = all three dose groups (15, 30 and 50 mg/kg in feed), vs vehicle control group
[9] = in feed at 15, 30 and 50 mg/kg, associated with GL1 inhibition
[10] = Mus musculus, B16 mouse melanoma cells, read-out: GM3 B16 IC50
[11] = Homo sapiens, C32 human melanoma cells, read-out: GM3 C32 IC50
[12] = Mus musculus, B16, B16 cells, concentration causing 50% cell death, values greater than 10 represent a lack of cell death, read-out: Viability, B16 IC50
[13] = Homo sapiens, C32, C32 cells, read-out: Viability, C32 IC50
[14] = B16 mouse melanoma cells, read-out: GM3 B16 IC50
[15] = C32 human melanoma cells, read-out: GM3 C32 IC50
[16] = B16 cells, concentration causing 50% cell death, values greater than 10 represent a lack of cell death, read-out: Viability, B16 IC50
[17] = C32 cells, read-out: Viability, C32 IC50

Work on `COCCOc1ccc(-c2ccc(C(C)(C)NC(=O)O[C@@H]3CN4CCC3CC4)cc2)cc1` [Example 156, (S)-Quinuclidin-3-yl (2-(4′-(2-methoxyethoxy)-[1,1′-biphenyl]-4-yl)propan-2-yl)carbamate] yielded a pIC50 [1] of 8.38, a pIC50 [2, 4] of 7.36 and a pIC50 [3, 5] of 8.88. The pIC50 (B16 mouse melanoma cells; [6]) was 5.32, the pIC50 (C32 human melanoma cells; [7]) was 6.12 and the body weight (jck mice; 30 mg/kg in feed, vs vehicle control group) was “statistically different”. For the same compound, the body weight (jck mice; 50 mg/kg in feed, vs vehicle control group) was “statistically different”, the “BUN (blood urea nitrogen)” value (jck mice; [8]) was “statistically different” and the cyst volume (jck mice; [8]) was “statistically different”. For the same compound, the “kidney to body weight (K/BW)” value (jck mice; [8]) was “statistically different”, the cyst growth (jck mice; [9]) was “reduced” and the kidney function (jck mice; [9]) was “preservation”. The GL1 levels (jck mice; in feed at 15, 30 and 50 mg/kg, from 3-4 weeks to 9 weeks of age, vs vehicle control) was “dose-dependent inhibition”.

For `CCC1(NC(=O)NC(C)(C)C#Cc2ccc(S(=O)(=O)CCC(C)(C)C)cc2)CN2CCC1CC2` (stereo not drawn) [Example 338, 1-(4-(4-((3,3-Dimethylbutyl)sulfonyl)phenyl)-2-methylbut-3-yn-2-yl)-3-(3-ethylquinuclidin-3-yl)urea], the pIC50 [1] was 8.35, the pIC50 [2, 10] was 7.14 and the pIC50 [3, 11] was 9.01. For the same compound, the pIC50 (B16 mouse melanoma cells; [12]) was 5.67 and the pIC50 (C32 human melanoma cells; [13]) was 6.00.

`COCC(C)(C)c1ccc(C#CC(C)(C)NC(=O)NC2(C)CN3CCC2CC3)cc1` (stereo not drawn) [Example 339, 1-(4-(4-(1-Methoxy-2-methylpropan-2-yl)phenyl)-2-methylbut-3-yn-2-yl)-3-(3-methylquinuclidin-3-yl)urea] gave a pIC50 [1] of 6.87, a pIC50 [2, 10] of 6.14 and a pIC50 [3, 11] of 7.59. It also gave a pIC50 (B16 mouse melanoma cells; [12]) of no more than 5.00 and a pIC50 (C32 human melanoma cells; [13]) of no more than 5.00.

`COCCCOc1ccc(-c2nc(C(C)(C)NC(=O)OC3CN4CCC3CC4)cs2)cc1` (stereo not drawn) [Example 340, Quinuclidin-3-yl (2-(2-(4-(3-methoxypropoxy)phenyl)thiazol-4-yl)-propan-2-yl)carbamate] was tested, and the pIC50 [1] was 6.77, the pIC50 [2, 4] was 6.71 and the pIC50 [3, 5] was 7.37. The pIC50 (B16 mouse melanoma cells; [6]) was no more than 5.00 and the pIC50 (C32 human melanoma cells; [7]) was no more than 5.00.

With `COCCCOc1ccc(-c2nc(C(C)(C)NC(=O)OC3CCN4CCC3CC4)cs2)cc1` (stereo not drawn) [Example 341, 1-Azabicyclo[3.2.2]nonan-4-yl (2-(2-(4-(3-methoxypropoxy)phenyl)thiazol-4-yl)propan-2-yl)carbamate] the pIC50 [1] was 7.71, the pIC50 [2, 10] was 7.04 and the pIC50 [3, 11] was 8.14. It also gave a pIC50 (B16 mouse melanoma cells; [12]) of no more than 5.00 and a pIC50 (C32 human melanoma cells; [13]) of no more than 5.00.

`COCCCOc1ccc(-c2nc(C(C)(C)NC(=O)N3CCN4CCC3CC4)cs2)cc1` [Example 342, N-(2-(2-(4-(3-Methoxypropoxy)phenyl)thiazol-4-yl)propan-2-yl)-1,4-diazabicyclo[3.2.2]nonane-4-carboxamide] gave a pIC50 [1] of 6.18, a pIC50 [2, 10] of 6.41 and a pIC50 [3, 11] of 7.07. The pIC50 (B16 mouse melanoma cells; [12]) was no more than 5.00 and the pIC50 (C32 human melanoma cells; [13]) was no more than 5.00.

Work on `COCCOc1ccc(-c2nc(C(C)(C)NC(=O)OC3CN4CCC3CC4)cs2)cc1` (stereo not drawn) [Example 343, Quinuclidin-3-yl (2-(2-(4-(2-methoxyethoxy)phenyl)thiazol-4-yl)propan-2-yl)carbamate] yielded a pIC50 [1] of 6.44, a pIC50 [2, 4] of 6.97 and a pIC50 [3, 5] of 7.70. It also gave a pIC50 (B16 mouse melanoma cells; [6]) of no more than 5.00 and a pIC50 (C32 human melanoma cells; [7]) of 6.00.

`COCCOc1ccc(-c2nc(C(C)(C)NC(=O)OC3CCN4CCC3CC4)cs2)cc1` (stereo not drawn) [Example 344, 1-Azabicyclo[3.2.2]nonan-4-yl (2-(2-(4-(2-methoxyethoxy)phenyl)thiazol-4-yl)propan-2-yl)carbamate] showed a pIC50 [1] of 7.18, a pIC50 [2, 10] of 7.25 and a pIC50 [3, 11] of 8.06. The pIC50 (B16 mouse melanoma cells; [12]) was no more than 5.00 and the pIC50 (C32 human melanoma cells; [13]) was 6.00.

Compound `COCCOc1ccc(-c2nc(C(C)(C)NC(=O)N3CCN4CCC3CC4)cs2)cc1` [Example 345, N-(2-(2-(4-(2-Methoxyethoxy)phenyl)thiazol-4-yl)propan-2-yl)-1,4-diazabicyclo[3.2.2]nonane-4-carboxamide] has a pIC50 [1] of 5.60, a pIC50 [2, 10] of 6.43 and a pIC50 [3, 11] of 7.04. The pIC50 (B16 mouse melanoma cells; [12]) was no more than 5.00 and the pIC50 (C32 human melanoma cells; [13]) was 5.50.

For `COCCOc1ccc(-c2ccc(C(C)(C)NC(=O)OC3CN4CCC3CC4)nc2)cc1` (stereo not drawn) [Example 346, Quinuclidin-3-yl 2-(5-(4-(2-methoxyethoxy)phenyl)pyridin-2-yl)propan-2-ylcarbamate], the pIC50 [1] was 7.29, the pIC50 [2, 4] was 6.58 and the pIC50 [3, 5] was 7.95. It also gave a pIC50 (B16 mouse melanoma cells; [6]) of no more than 5.00 and a pIC50 (C32 human melanoma cells; [7]) of 5.50.

`COCCOc1ccc(-c2ccc(C(C)(C)NC(=O)OC3CCN4CCC3CC4)nc2)cc1` (stereo not drawn) [Example 347, 1-Azabicyclo[3.2.2]nonan-4-yl 2-(5-(4-(2-methoxyethoxy)phenyl)pyridin-2-yl)propan-2-ylcarbamate] gave a pIC50 [1] of 7.43, a pIC50 [2, 10] of 6.82 and a pIC50 [3, 11] of 8.24. For the same compound, the pIC50 (B16 mouse melanoma cells; [12]) was no more than 5.00 and the pIC50 (C32 human melanoma cells; [13]) was 5.85.

In the case of `CC(C)(NC(=O)OC1CN2CCC1CC2)c1cccc(-c2ccc(F)cc2)c1` (stereo not drawn) [GZ 161, quinuclidin-3-yl (2-(4′-fluoro-[1,1′-biphenyl]-3-yl)propan-2-yl)carbamate], the “kidney to body weight (K/BW)” value (jck mice; 60 mg/kg in feed, vs vehicle control group) was “statistically different”.

For “N-(2-(4-(4-(Methylcarbamoyl)phenoxy)phenyl)propan-2-yl)-1,4-diazabicyclo[3.2.2]nonane-4-carboxamide [Example 305]”, the pIC50 [1] was 6.40, the pIC50 [2, 14] was 6.52 and the pIC50 [3, 15] was 7.71. For the same compound, the pIC50 (B16 mouse melanoma cells; [16]) was no more than 5.00 and the pIC50 (C32 human melanoma cells; [17]) was 6.00.

“N-(4-Methyl-1-azabicyclo[3.2.2]nonan-4-yl)-4-(3-(pyrimidin-5-yl)phenyl)piperazine-1-carboxamide [Example 27]” gave a pIC50 [1] of 4.78, a pIC50 [2, 14] of less than 5.00 and a pIC50 [3, 15] of 6.10. For the same compound, the pIC50 (B16 mouse melanoma cells; [16]) was no more than 5.00 and the pIC50 (C32 human melanoma cells; [17]) was no more than 5.00.

With “Quinuclidin-3-yl (2-(4′-(2-methoxyethoxy)-[1,1′-biphenyl]-3-yl)propan-2-yl)carbamate [Example 175]” the pIC50 [1] was 8.60, the pIC50 [2, 14] was 7.15 and the pIC50 [3, 15] was 8.73. It also gave a pIC50 (B16 mouse melanoma cells; [16]) of no more than 5.00 and a pIC50 (C32 human melanoma cells; [17]) of 5.05.

For “Quinuclidin-3-yl (2-(4′-((2-methoxyethoxy)methyl)-[1,1′-biphenyl]-3-yl)propan-2-yl)carbamate [Example 203]”, the pIC50 [1] was 7.53, the pIC50 [2, 14] was 7.02 and the pIC50 [3, 15] was 8.19. For the same compound, the pIC50 (B16 mouse melanoma cells; [16]) was no more than 5.00 and the pIC50 (C32 human melanoma cells; [17]) was 5.75.

Source: patent US12060349B2, “Glucosylceramide synthase inhibitors” (Genzyme Corporation, priority 2012, dated 2024)
